Assay results: patent US5747545A, “Method of preventing NMDA receptor complex-mediated Neuronal damage” (priority 1995, dated 1998)

Test system: NMDA receptor (rat cortical neurons in culture)
Test: Digital fura-2 imaging of NMDA-evoked intracellular [Ca2+] in cultured cortical neurons
Type: cell-based, rat (Sprague-Dawley)
Settings: 50 μM NMDA; Examples 1-2; NTG 100 μM in Example 2
Experimental: The concentration of intracellular free Ca^2+ ([Ca^2+ ]i) is measured in neonatal cortical neurons by digital imaging microscopy with the Ca^2+ sensitive fluorescent dye fura 2, as follows. The same cortical neuronal cultures as described above are used. During Ca^2+ measurements, unless otherwise stated the fluid bathing the neurons consists of Hanks' balanced salts: 137.6 mM NaCl, 1 mM NaHCO3, 0.34 mM Na2 HPO4, 0.44 mM KH2 PO4, 5.36 mM KCl, 1.25 mM CaCl2, 0.5 mM MgSO4, 0.5 mM MgCl2, 5 mM Hepes NaOH, 22.2 mM glucose, and sometimes with phenol red indicator (0.001% v/v); pH 7.2. NMDA (in the absence Mg^++), glutamate, and other substances are usually applied to the neurons by pressure ejection after dilution in this bath solution. Neuronal [Ca^2+ ]i is analyzed with fura 2-acetoxy-methyl ester (AM) as described [Grynkiewicz, et al., J. Biol. Chem. 260:3440 (1985); Williams et al., Nature 318:558 (1985); Connor et al., J. Neurosci. 7:1384 (1987); Connor et al., Science 240:649 (1988); Cohan et al., J. Neurosci. 7:3588 (1987); Mattson, et al., ibid, 9:3728 (1989)]. After adding Eagle's minimum essential medium containing 10 μM fura 2-AM to the neurons, the cultures are incubated at 37° C. in a 5% CO2 /95% air humidified chamber and then rinsed. The dye is loaded, trapped, and deesterified within 1 hour, as determined by stable fluorescence ratios and the effect of the Ca^2+ ionophore ionomycin on [Ca^2+ ]i is measured. During Ca^2+ imaging, the cells are incubated in a solution of Hepes-buffered saline with Hanks' balanced salts. The [Ca^2+ ]i is calculated from ratio images that are obtained by measuring the fluorescence at 500 nm that is excited by 350 and 380 nm light with a DAGE MTI 66 SIT or QUANTEX QX-100 Intensified CCD camera mounted on a Zeiss Axiovert 35 microscope. Exposure time for each picture is 500 ms. Analysis is performed with a Quantex (Sunnyvale, Calif.) QX7-210 image-processing system. Since cells are exposed to ultraviolet light only during data collection (generally less than a total of 20 s per cell), bleaching of fura 2 is minimal.
In this experiment, the effect of NTG on intracellular [Ca^++ ] increases induced by NMDA were followed using digital [Ca^++ ] imaging techniques, based on the dye fura-2.
Specifically, the model for NMDA-mediated neurotoxicity involves exposure of cultured rat cortical neurons to NMDA in the presence of glycine (a co-agonist).
Cortical cultures were derived from embryonic (fetal day 15 or 16) Sprague-Dawley rats as described previously (Dichter, 1978; Rosenberg and Aizenman, 1989). […]

## O=[N+]([O-])OCC(CO[N+](=O)[O-])O[N+](=O)[O-] [NTG, 1,2,3-propanetriol trinitrate]
  Effect on NMDA-evoked [Ca2+]i response: persistently decreased the NMDA-evoked [Ca^2+ ]i response
